Results published in patent US5872126A, “Methods and compositions for treating preterm labor” (priority 1997, dated 1999).
Where “and” joins values, the source holds several entries; their conditions need not be identical. Equal entries are not always repeated.

How the values were obtained:
[1] = system: parturition in mice homozygous for genetic null mutations of type 1 5α-reductase; settings: mice homozygous for type 1 5α-reductase null mutations; cited from earlier work
[2] = system: parturition in pregnant rats; settings: oral dose 10 mg/kg on GD 21; rats treated with 200 mg/kg progesterone subcutaneously; cited from earlier work
parturition in the rat = test: Parturition with test compound and progesterone antagonist RU-486 (Example 3); format: in vivo, Sprague-Dawley rat; settings: RU-486 10 mg/kg on GD 21 (Group 2)
Experimental: In order to determine if the effects in the experiments conducted in Examples 1 and 2 were due to decreased progesterone catabolism associated with inhibition of 5α-reductase by the 5α-reductase type 1 inhibitor 3-oxo-4-aza-4,7β-dimethyl-16β-(4-chlorophenoxy)-5α-androstane ("test compound"), the following study was performed with the 5α-reductase inhibitor 3-oxo-4-aza-4,7β-dimethyl-16β-(4-chlorophenoxy)-5α-androstane and the progesterone antagonist RU-486.
Fifty-six pregnant female Sprague-Dawley rats (Charles River Laboratories, Raleigh, N.C.), approximately 10.5 weeks old weighing from 212 to 319 grams were employed in the study. They were fed and housed as described in EXAMPLE 1. The females were assigned to the following groups based on a weight independent random allocation scheme:
Control (Control article)
test compound @ 20 mg/kg/day
A dose of 10 mg/kg off RU-486 was selected based on the studies of Abdellilah et al., Progesterone and Mifepristone modify principally the response of circular myometrium to oxytocin in preparturient rats: comparison with response to acetylcholine and to calcium J. Pharmacol. and Exp. Therp.
The drugs were administered by oral gavage. The control article and vehicle consisted of 0.5% methylcellulose in deionized water with 0.02% sodium lauryl sulfate (SLS) and were prepared on a weekly basis and refrigerated when not in use. The test compound formulation (4 mg/mL, in vehicle) was prepared on a weekly basis and was refrigerated when not in use. The RU-486 formulation (2 mg base compound/mL, in 0.5% methylcellulose in deionized water) was prepared on a daily basis.

[3] = cited from earlier work; for side effects: human, in vivo
rat type 1 5α-reductase = target: T1, rat type 1 5α-reductase (Rattus norvegicus, UniProt P24008); test: 5α-reductase assay, COS cell expressed rat type 1; format: biochemical; settings: recombinant rat type 1; read-out: IC50 finasteride
T1 construct: made in house; host or cells: COS cells
T1 sequence (P24008 1-259): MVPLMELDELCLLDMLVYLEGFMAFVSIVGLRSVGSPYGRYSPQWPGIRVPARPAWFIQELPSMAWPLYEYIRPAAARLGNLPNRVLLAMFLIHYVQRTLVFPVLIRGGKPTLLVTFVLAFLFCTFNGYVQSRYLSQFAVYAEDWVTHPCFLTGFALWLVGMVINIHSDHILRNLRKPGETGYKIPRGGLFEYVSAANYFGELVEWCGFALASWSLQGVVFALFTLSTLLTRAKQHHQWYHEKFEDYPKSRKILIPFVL
Experimental: (§1) Rat placenta was obtained from Bioproducts for Science. The tissue was homogenized in 10 volumes of buffer containing 0.25 sucrose, 40 mM potassium phosphate pH 6.5, 5 mM magnesium sulfate, 25 mM potassium chloride, 1 mM phenylmethylsulfonyl fluoride, and 1 mM dithiothreitol using a Potter Elverhjem homogenizer. The homogenate was centrifuged at 100,000×g for 60 minutes at 4° C. The pellet was resuspended in 1.5 volumes of buffer. Glycerol was added to the resuspended pellet to a final concentration of 20%. COS cell expressed rat 5α-reductase was used as the source of type 1 and type 2 in these studies for comparison.
(§2) All samples in the enzyme assay were tested in a reaction mixture containing 33 mM succinic acid, 44 mM imidazole, 33 mM diethanolamine (SID), pH 5.5 and pH 7.5, 0.5 μM [7-^3 H]-testosterone (specific activity approximately 20-30 Ci/mmol), 1.5 μM unlabeled testosterone, 1 mM DTT and […] NADPH in a final volume of […]. The assay was initiated by the addition of enzyme and incubated at 37° C. for 15 min.

human type 2 enzyme = settings: cited from earlier work
[4] = target: T2, 5α-reductase in rat placenta (Rattus norvegicus, UniProt P24008); test: 5α-reductase assay, rat placenta microsomes; format: biochemical; settings: read-out: IC50 finasteride
T2 construct: microsomes prepared from rat placenta; tissue Bioproducts for Science; host or cells: rat placenta (microsomes, 100,000×g pellet of homogenate)
T2 sequence (P24008 1-259): T1 sequence (P24008 1-259)
Experimental: (§3) The 5α-reductase content of microsomes prepared from rat placenta was determined.
as §1, §2

rat type 2 5α-reductase = target: T3, rat type 2 5α-reductase (Rattus norvegicus, UniProt P31214); test: 5α-reductase assay, COS cell expressed rat type 2; format: biochemical; settings: read-out: IC50 finasteride
T3 construct: made in house; host or cells: COS cells
T3 sequence (P31214 1-254): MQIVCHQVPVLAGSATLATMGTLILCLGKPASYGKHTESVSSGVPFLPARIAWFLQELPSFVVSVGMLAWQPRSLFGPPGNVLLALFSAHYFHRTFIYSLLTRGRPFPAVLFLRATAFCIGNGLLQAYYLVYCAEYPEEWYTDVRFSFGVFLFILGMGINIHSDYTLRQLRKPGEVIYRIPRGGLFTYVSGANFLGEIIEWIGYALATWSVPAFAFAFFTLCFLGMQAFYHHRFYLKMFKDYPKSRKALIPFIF
Experimental: as §1, §2

[5] = system: pregnancy and myometrial contractile activity in the rat; settings: exogenous progesterone; cited from earlier work
[6] = substrate: C[C@]12CC[C@H]3[C@@H](CCC4=CC(=O)CC[C@@]43C)[C@@H]1CC[C@@H]2O; test: 5α-reductase assay, COS cell expressed rat type 2; format: biochemical; settings: other: rat type 2; 37.0 °C
Experimental: as §1, §2

[7] = substrate: C[C@]12CC[C@H]3[C@@H](CCC4=CC(=O)CC[C@@]43C)[C@@H]1CC[C@@H]2O; test: 5α-reductase assay, rat placenta microsomes; format: biochemical; settings: other: rat placenta microsomes; 37.0 °C
Experimental: as §3, §1, §2

[8] = substrate: C[C@]12CC[C@H]3[C@@H](CCC4=CC(=O)CC[C@@]43C)[C@@H]1CC[C@@H]2O; test: 5α-reductase assay, COS cell expressed rat type 1; format: biochemical; settings: other: recombinant rat type 1; 37.0 °C
Experimental: as §1, §2

For `C[C@]12CC[C@@H](O)C[C@@H]1CC[C@@H]1[C@@H]2CC[C@]2(C)[C@@H](O)CC[C@@H]12` [Example 3α-Adiol, 5α-androstan-3α,17β-diol], the “mice in which parturition was induced” value [1] is listed as 93%.

For `CC#C[C@]1(O)CC[C@H]2[C@@H]3CCC4=CC(=O)CCC4=C3[C@@H](c3ccc(N(C)C)cc3)C[C@@]21C` [RU-486, reference compound], the “induction of parturition” value [2] is given as “able to induce parturition”, the “mice in which parturition was induced” value [1] is given as 100% and the “Mean Length of Gestation ± SD” value (parturition in the rat; only females completing delivery, 10 mg/kg) is given as 22.3 days and 22.3 ± 0.4 days. The “number of females completing parturition” value (parturition in the rat; delivery day GD 22.0) was 7, the “number of females completing parturition” value (parturition in the rat; delivery day GD 22.5) was 5 and the “number of females completing parturition” value (parturition in the rat; delivery day GD 23.0) was 2.

For `CCO` [ethanol], the “effectiveness in preventing premature labor” value ([3]; compared with ritodrine) is listed as “as effective as ritodrine in preventing premature labor” and the “reduction in the incidence of fetal respiratory distress” value ([3]; compared with ritodrine) is listed as “does not produce a corresponding reduction in the incidence of fetal respiratory distress”.

In the case of `CC(C)(C)NC(=O)[C@H]1CC[C@H]2[C@@H]3CC[C@H]4NC(=O)C=C[C@]4(C)[C@H]3CC[C@]12C` [finasteride, 17β-(N-tert-butylcarbamoyl)-3-oxo-4-aza-5α-androst-1-en-3-one], the IC50 (rat type 1 5α-reductase) is listed as 13 nM, the “inhibition of the human type 2 enzyme” value (human type 2 enzyme) is listed as “potent inhibitor” and the IC50 [4] is listed as 11 nM. For the same molecule, the IC50 (rat type 2 5α-reductase) was 1 nM.

For `O=S(=O)([O-])[O-].[Mg+2]` [magnesium sulfate], the “adverse effects at plasma concentrations above the therapeutic range” value ([3]; above 4 to 8 mg/dL) is listed as “inhibition of cardiac conduction and neuromuscular transmission, respiratory depression and cardiac arrest”.

For `CC(=O)[C@H]1CC[C@H]2[C@@H]3CCC4=CC(=O)CC[C@]4(C)[C@H]3CC[C@]12C` [progesterone], the “effect on pregnancy and myometrial contractile activity” value [5] is listed as “prolong pregnancy and impair myometrial contractile activity”.

For `CC(NCCc1ccc(O)cc1)C(O)c1ccc(O)cc1` (stereo not drawn) [ritodrine], the “side effects” value [3] is given as “tachycardia, increased renin secretion, hyperglycemia (and reactive hypoglycemia in the infant)”.

For `CC(C)(C)NCC(O)c1ccc(O)c(CO)c1` (stereo not drawn) [salbutamol], the “side effects” value [3] is given as “side effects similar to those of ritodrine”.

For `CC(C)(C)NCC(O)c1cc(O)cc(O)c1` (stereo not drawn) [terbutaline], the “side effects” value [3] is listed as “side effects similar to those of ritodrine”.

B1: rat type 2 5α-reductase (Rattus norvegicus) (protein)
chain: T3 sequence (P31214 1-254)
notes: made in house; host or cells: COS cells
With B1 the Km [6] was 0.15 µM.

B2: 5α-reductase in rat placenta (Rattus norvegicus) (protein)
chain: T1 sequence (P24008 1-259)
notes: microsomes prepared from rat placenta; tissue Bioproducts for Science; host or cells: rat placenta (microsomes, 100,000×g pellet of homogenate)
With B2 the Km [7] was 5.2 µM.

B3: rat type 1 5α-reductase (Rattus norvegicus) (protein)
chain: T1 sequence (P24008 1-259)
notes: as for B1
Work on B3 yielded a Km [8] of 1.7 µM.
